Structures can show the parent of a compound that is named as a salt.
Key:
AMPA receptor = assay: 3H-AMPA binding (in vitro receptor affinity test); parameters: species or system rat; settings: cerebral cortex membranes from male Wistar rats; 3H-AMPA 5 nM; 30 minutes at 2° C.; read-out: IC50 (concentration of the test substance which inhibits the specific binding of 3H-AMPA by 50%)
From the text: In an in vitro activity (receptor affinity) test, the chemical compounds of the present invention have been tested for their affinity for the AMPA receptor.
L-glutamate (GLU) is the major excitatory neurotransmitter in the mammalian central nervous system. From electro-physiological- and binding studies, there appear to be at least three subtypes of GLU receptors, tentatively named N-methyl-D-aspartate (NMDA) receptors, quisqualate receptors and kainate receptors. AMPA has been known for several years to be a potent and selective agonist at the traditionally named quisqualate receptors. Activation of quisqualate receptors by AMPA is associated with Na^+influx and K^+efflux leading to depolarisation. ^3H-AMPA is a selective radioligand for labelling the ionotropic quisqualate (AMPA) receptors.
Preparations are performed at 0-4° C. unless otherwise indicated. Cerebral cortex from male Wistar rats (150-200 g) is homogenised for 5-10 sec in 20 ml Tris-HCl (30 mM, pH 7.4) using an Ultra-Turrax™ homogeniser. The suspension is centrifuged at 27,000×g for 15 minutes and the pellet is washed three times with buffer (centrifuged at 27,000×g for 10 minutes). The washed pellet is homogenised in 20 ml of buffer and incubated on a water bath (of 37° C.) for 30 minutes to remove endogenous glutamate and then centrifuged for 10 minutes at 27,000×g. The pellet is then homogenised in buffer and centrifuged at for 10 minutes at 27,000×g. The final pellet is resuspended in 30 ml buffer and the preparation is frozen and stored at −20° C.
The membrane preparation is thawed and centrifuged at 2° C. for 10 minutes at 27,000×g. […] Non-specific binding is determined using L-glutamate (0.6 mM, final concentration).
After incubation the 550 μl samples are added 5 ml of ice-cold buffer and poured directly onto Whatman™ GF/C glass fibre filters under suction and immediately washed with 5 ml of ice-cold buffer. […] The amount of radioactivity on the filters is determined by conventional liquid scintillation counting. […]

CN1CCc2c(-c3ccc(S(=O)(=O)N(C)C)cc3)cc3c(c2C1)NC(=O)C3=NOC1CCOC1=O (centres unmarked) (as salt: hydrochloride) [8-methyl-5-(4-(N,N-dimethylsulfamoyl)phenyl)-6-7-8-9-tetrahydro-1H-pyrrolo[3,2-h]-isoquinoline-2,3-dione-3-O-(3-(2-oxo)tetrahydrofuryl) oxime, hydrochloride]
melting point: 245 °C (dec.)

CN1CCc2c(-c3ccc(S(=O)(=O)N(C)C)cc3)cc3c(c2C1)NC(=O)C3=NOC(CCO)C(=O)O (centres unmarked) (as salt: sodium) [8-methyl-5-(4-(N,N-dimethylsulfamoyl)phenyl)-6-7-8-9-tetrahydro-1H-pyrrolo[3,2-h]-isoquinoline-2,3-dione-3-O-(4-hydroxybutyric acid-2-yl)oxime sodium salt]
melting point: > 200 °C (dec.)

CN1CCc2c(-c3ccc(S(=O)(=O)N(C)C)cc3)cc3c(c2C1)NC(=O)C3=NOC1CCOC1=O (centres unmarked) [8-methyl-5-(4-(N,N-dimethylsulfamoyl)phenyl)-6-7-8-9-tetrahydro-1H-pyrrolo[3,2-h]-isoquinoline-2,3-dione-3-O-(3-(2-oxo)tetrahydrofuryl) oxime, hydrochloride]
IC50 (AMPA receptor): 150 nM

CN1CCc2c(-c3ccc(S(=O)(=O)N(C)C)cc3)cc3c(c2C1)NC(=O)C3=NOC(CCO)C(=O)O (centres unmarked) [8-methyl-5-(4-(N,N-dimethylsulfamoyl)phenyl)-6-7-8-9-tetrahydro-1H-pyrrolo[3,2-h]-isoquinoline-2,3-dione-3-O-(4-hydroxybutyric acid-2-yl)oxime sodium salt]
IC50 (AMPA receptor): 50 nM

CCOC(=O)CO/N=C1\C(=O)Nc2c1cc(-c1ccc(S(=O)(=O)N(C)C)cc1)c1c2CN(C)CC1 [8-methyl-5-(4-(N,N-dimethylsulfamoyl)phenyl-6,7,8,9-tetrahydro-1H-pyrrolo [3,2-h]isoquinoline-2,3-dione-3-O-(ethoxycarbonylmethyl) oxime]
IC50 (AMPA receptor): 100 nM
